Assay results as given in ChEMBL document CHEMBL5512614, “Annual review of PROTAC degraders as anticancer agents in 2022” (Eur J Med Chem, 2024).

What was measured:
[1] = molecular target: von Hippel-Lindau disease tumor suppressor/GTPase KRas (Homo sapiens, UniProt P01116+P40337, G12C); test: PROTAC activity at VHL/KRAS G12C mutant in human NCI-H2030 cells assessed as protein degradation incubated for 24 hrs by Western blot analysis; type: cell-based
[2] = molecular target: T1, Epidermal growth factor receptor (Homo sapiens, UniProt P00533); test: Inhibition of wild-type EGFR in human A549 cells; type: cell-based
T1 sequence (P00533 whole entry): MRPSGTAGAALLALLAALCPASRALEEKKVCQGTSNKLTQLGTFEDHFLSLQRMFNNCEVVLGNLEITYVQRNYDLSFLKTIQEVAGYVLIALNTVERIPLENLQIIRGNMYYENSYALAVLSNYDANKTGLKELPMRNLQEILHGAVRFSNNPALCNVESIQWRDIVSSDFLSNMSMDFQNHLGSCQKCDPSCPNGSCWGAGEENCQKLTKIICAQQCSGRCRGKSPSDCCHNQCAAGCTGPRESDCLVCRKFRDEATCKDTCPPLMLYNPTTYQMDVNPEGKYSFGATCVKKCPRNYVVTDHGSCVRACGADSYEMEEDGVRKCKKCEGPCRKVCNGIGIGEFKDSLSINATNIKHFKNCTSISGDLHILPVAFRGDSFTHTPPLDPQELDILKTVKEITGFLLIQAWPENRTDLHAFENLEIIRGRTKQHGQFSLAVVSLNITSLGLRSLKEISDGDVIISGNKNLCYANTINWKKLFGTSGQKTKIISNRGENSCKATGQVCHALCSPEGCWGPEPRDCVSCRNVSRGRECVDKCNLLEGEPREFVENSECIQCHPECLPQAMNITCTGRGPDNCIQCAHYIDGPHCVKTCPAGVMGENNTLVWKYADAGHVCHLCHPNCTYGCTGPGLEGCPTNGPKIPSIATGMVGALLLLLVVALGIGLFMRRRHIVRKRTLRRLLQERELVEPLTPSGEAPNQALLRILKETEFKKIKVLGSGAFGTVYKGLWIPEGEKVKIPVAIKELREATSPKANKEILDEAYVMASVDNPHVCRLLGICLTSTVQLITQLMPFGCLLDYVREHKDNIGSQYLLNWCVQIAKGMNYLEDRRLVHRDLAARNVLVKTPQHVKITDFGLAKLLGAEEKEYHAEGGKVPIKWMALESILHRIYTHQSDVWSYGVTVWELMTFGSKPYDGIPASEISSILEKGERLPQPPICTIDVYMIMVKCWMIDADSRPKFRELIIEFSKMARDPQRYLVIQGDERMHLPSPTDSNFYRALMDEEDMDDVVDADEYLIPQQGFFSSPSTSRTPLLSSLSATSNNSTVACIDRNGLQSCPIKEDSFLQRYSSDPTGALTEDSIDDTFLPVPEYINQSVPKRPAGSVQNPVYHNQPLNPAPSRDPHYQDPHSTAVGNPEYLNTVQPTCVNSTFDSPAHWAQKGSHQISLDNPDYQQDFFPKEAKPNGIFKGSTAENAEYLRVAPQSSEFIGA

[3] = molecular target: T1, Epidermal growth factor receptor; test: Inhibition of wild-type EGFR in human A-431 cells; type: cell-based
[4] = Inhibition of EGFR L858R/790M mutant in human NCI-H1975 cells; type: cell-based
[5] = molecular target: von Hippel-Lindau disease tumor suppressor/Epidermal growth factor receptor (Homo sapiens, UniProt P00533+P40337); test: PROTAC activity at VHL/EGFR del19 mutant in human HCC827 cells assessed as protein degradation; type: cell-based
[6] = test system: von Hippel-Lindau disease tumor suppressor/Epidermal growth factor receptor (Homo sapiens), P00533+P40337 [UNDEFINED MUTATION]; test: PROTAC activity at VHL/EGFR del19 mutant in human HCC827 cells assessed as protein degradation relative to control; type: cell-based
[7] = Inhibition of EGFR del19 mutant in human HCC827 cells; type: cell-based
Focal adhesion kinase 1 = Focal adhesion kinase 1 (Homo sapiens, UniProt Q05397); test: Inhibition of FAK (unknown origin) incubated for 50 mins in presence of substrate/ATP by HTRF assay
[8] = molecular target: Protein cereblon/Focal adhesion kinase 1 (Homo sapiens) (UniProt Q05397+Q96SW2); test: PROTAC activity at CRBN/FAK in human A549 cells assessed as protein degradation at 10 nM incubated for 12 hrs by Western blot analysis relative to control; type: cell-based
Chain of Protein cereblon/Focal adhesion kinase 1 (Homo sapiens) (Q05397 2-1052 limits assumed): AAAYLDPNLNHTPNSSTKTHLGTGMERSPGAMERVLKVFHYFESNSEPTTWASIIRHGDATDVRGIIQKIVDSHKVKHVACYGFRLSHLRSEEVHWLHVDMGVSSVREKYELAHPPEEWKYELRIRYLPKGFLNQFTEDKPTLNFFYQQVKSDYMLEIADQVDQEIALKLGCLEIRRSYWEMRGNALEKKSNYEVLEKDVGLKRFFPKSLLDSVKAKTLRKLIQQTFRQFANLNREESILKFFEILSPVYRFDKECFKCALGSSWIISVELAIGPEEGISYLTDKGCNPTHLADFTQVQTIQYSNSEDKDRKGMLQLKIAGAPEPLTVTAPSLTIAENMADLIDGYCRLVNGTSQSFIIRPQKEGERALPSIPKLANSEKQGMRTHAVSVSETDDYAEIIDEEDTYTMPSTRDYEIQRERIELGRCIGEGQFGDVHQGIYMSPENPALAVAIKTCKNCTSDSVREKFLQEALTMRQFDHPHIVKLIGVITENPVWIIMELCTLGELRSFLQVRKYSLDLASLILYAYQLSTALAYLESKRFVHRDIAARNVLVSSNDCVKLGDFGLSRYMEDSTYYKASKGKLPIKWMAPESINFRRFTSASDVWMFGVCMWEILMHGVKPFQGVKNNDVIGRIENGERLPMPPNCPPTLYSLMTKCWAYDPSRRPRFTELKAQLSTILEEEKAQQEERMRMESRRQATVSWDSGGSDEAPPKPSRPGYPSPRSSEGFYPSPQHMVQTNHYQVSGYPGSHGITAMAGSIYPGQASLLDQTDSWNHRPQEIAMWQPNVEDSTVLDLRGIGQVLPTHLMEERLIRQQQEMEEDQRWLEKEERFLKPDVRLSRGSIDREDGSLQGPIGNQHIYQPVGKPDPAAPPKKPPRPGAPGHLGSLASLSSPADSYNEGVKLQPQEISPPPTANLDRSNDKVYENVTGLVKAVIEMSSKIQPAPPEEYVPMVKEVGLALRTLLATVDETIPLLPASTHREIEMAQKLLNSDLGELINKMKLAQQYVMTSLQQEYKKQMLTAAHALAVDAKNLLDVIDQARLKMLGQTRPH
Chain of Protein cereblon/Focal adhesion kinase 1 (Homo sapiens) (Q96SW2 whole entry partner): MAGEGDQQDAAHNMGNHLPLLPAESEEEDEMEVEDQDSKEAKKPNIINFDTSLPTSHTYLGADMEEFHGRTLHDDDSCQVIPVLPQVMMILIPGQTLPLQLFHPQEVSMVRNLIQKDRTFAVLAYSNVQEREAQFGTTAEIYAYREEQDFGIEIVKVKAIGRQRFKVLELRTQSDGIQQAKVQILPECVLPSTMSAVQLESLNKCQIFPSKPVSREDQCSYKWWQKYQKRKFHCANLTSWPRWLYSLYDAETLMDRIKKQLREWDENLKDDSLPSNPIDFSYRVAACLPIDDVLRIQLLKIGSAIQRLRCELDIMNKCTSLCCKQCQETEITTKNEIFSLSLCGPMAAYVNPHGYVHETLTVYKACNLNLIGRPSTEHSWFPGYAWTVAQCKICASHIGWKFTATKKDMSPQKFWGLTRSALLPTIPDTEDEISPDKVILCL

[9] = Stability in human plasma assessed as half life at 2 uM incubated for 120 mins by LC-MS/MS analysis; type: ADME, cell-free
[10] = molecular target: RAC-alpha serine/threonine-protein kinase (Homo sapiens, UniProt P31749); test: Inhibition of AKT1 (unknown origin)
Chain of RAC-alpha serine/threonine-protein kinase (P31749 whole entry): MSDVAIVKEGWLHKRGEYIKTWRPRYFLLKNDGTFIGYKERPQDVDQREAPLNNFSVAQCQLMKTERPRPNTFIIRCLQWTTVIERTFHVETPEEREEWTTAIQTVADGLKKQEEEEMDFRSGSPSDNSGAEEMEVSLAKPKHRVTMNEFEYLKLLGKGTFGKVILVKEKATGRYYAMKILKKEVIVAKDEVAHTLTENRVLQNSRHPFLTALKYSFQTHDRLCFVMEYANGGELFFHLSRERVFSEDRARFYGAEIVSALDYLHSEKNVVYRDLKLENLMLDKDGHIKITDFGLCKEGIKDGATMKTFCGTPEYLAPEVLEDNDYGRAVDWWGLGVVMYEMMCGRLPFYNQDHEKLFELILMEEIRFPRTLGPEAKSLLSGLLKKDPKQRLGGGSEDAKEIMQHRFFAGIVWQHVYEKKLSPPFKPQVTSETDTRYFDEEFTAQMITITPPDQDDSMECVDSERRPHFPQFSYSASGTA

[11] = molecular target: RAC-beta serine/threonine-protein kinase (Homo sapiens, UniProt P31751); test: Inhibition of AKT2 (unknown origin)
[12] = molecular target: RAC-gamma serine/threonine-protein kinase (Homo sapiens, UniProt Q9Y243); test: Inhibition of AKT3 (unknown origin)
[13] = molecular target: von Hippel-Lindau disease tumor suppressor/AKT (Homo sapiens, UniProt P31751+Q9Y243+P31749+P40337); test: PROTAC activity at VHL/AKT in human SW620 cells assessed as protein degradation; type: cell-based
SW-620 = test: Inhibition of cell growth in human SW620 cells; type: functional
[14] = molecular target: Bromodomain-containing protein 4 (Homo sapiens, UniProt O60885); test: Inhibition of BRD4 in HEK293T cells; type: cell-based
[15] = molecular target: T2, Protein fem-1 homolog B/Bromodomain-containing protein 4 (Homo sapiens, UniProt O60885+Q9UK73); test: PROTAC activity at FEM1B/BRD4 in HEK293T cells assessed as protein degradation relative to control; type: cell-based
T2 sequence (Q9UK73 whole entry, looked up, other chains not shown): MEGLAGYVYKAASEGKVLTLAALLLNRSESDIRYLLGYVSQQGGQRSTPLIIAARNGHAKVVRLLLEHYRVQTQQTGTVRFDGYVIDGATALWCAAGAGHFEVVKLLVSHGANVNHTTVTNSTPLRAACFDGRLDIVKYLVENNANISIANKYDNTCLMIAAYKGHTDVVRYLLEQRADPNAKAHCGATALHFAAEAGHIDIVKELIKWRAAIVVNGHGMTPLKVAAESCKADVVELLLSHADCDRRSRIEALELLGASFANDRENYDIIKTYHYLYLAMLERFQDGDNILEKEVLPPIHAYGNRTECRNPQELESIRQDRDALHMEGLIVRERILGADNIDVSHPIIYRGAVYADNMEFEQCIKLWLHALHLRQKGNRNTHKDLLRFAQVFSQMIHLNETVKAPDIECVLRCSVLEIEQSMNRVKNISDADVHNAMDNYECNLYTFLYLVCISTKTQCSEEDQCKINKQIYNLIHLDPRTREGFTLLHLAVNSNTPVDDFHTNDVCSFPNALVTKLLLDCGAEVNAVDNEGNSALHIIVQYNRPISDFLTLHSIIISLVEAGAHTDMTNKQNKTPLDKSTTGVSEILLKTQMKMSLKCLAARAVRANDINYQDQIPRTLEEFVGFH

[16] = molecular target: T2, Protein fem-1 homolog B/Bromodomain-containing protein 4; test: PROTAC activity at FEM1B/BRD4 in HEK293T cells assessed as protein degradation; type: cell-based
CWR22R = test: Inhibition of cell growth in human 22Rv1 cells; type: functional, cell-based
[17] = molecular target: Cyclin-dependent kinase 9 (Homo sapiens, UniProt P50750); test: Induction of CDK9 degradation in human 22Rv1 cells; type: cell-based
Cyclin-T1 = Cyclin-T1 (Homo sapiens, UniProt O60563); test: Induction of Cyclin T1 degradation in human 22Rv1 cells; type: cell-based
Chain of Cyclin-T1 (O60563 whole entry): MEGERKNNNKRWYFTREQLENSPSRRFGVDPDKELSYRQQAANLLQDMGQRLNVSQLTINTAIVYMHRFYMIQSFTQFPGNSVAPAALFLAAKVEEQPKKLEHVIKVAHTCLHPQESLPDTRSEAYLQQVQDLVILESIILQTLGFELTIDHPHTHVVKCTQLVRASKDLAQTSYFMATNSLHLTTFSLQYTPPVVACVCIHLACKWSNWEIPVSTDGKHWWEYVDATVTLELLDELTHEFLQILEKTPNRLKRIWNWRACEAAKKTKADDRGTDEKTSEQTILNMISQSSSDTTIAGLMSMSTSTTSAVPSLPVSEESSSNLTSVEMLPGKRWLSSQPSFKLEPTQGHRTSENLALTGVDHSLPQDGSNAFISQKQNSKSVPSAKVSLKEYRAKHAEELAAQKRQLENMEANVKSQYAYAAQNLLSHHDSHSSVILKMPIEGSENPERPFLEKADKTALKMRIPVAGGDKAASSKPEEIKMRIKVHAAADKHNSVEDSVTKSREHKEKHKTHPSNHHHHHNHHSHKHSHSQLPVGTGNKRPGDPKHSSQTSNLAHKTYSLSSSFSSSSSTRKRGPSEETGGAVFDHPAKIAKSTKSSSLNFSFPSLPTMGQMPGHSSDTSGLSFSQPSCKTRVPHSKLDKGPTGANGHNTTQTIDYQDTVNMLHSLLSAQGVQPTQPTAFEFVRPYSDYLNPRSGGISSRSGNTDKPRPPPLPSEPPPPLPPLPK

Chain of von Hippel-Lindau disease tumor suppressor/GTPase KRas (P01116 whole entry G12C, stated change not applied): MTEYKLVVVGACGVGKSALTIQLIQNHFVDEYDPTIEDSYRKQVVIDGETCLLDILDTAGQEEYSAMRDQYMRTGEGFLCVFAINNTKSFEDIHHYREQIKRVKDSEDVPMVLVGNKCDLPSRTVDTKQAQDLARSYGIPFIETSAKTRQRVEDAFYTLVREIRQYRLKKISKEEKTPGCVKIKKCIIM
Chain of von Hippel-Lindau disease tumor suppressor/GTPase KRas (P40337 whole entry, stated change not applied): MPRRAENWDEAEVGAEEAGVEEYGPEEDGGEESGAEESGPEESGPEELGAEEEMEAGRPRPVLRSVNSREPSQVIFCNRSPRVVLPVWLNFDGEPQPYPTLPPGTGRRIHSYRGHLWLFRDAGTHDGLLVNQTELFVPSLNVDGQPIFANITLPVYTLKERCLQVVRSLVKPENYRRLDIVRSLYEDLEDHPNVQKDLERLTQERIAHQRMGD

C=C(F)C(=O)N1CCN(c2nc(OC[C@@H]3CCCN3CCCOCCC(=O)N[C@H](C(=O)N3CC(O)C[C@H]3C(=O)NCc3ccc(-c4scnc4C)cc3)C(C)(C)C)nc3c2CCN(c2cccc4cccc(Cl)c24)C3)C[C@@H]1CC#N (stereo partly specified)
DC50 [1]: 590 nM

Cc1ncsc1-c1ccc(CNC(=O)C2CC(O)CN2C(=O)C(NC(=O)CCCCCCCCCCn2cc(COc3cc4ncnc(Nc5ccc(F)c(Cl)c5)c4cc3NC(=O)/C=C/CN3CCCCC3)nn2)C(C)(C)C)cc1 (stereo unspecified)
IC50 [2]: > 20000 nM
IC50 [3]: > 20000 nM
IC50 [4]: > 20000 nM
DC50 [5]: 3.57 nM
Emax [6]: 91%
IC50 [7]: 6 nM

CN(c1ncccc1CNc1nc(Nc2ccc(N3CCN(CCCCCCC(=O)NCCNc4cccc5c4C(=O)N(C4CCC(=O)NC4=O)C5=O)CC3)cc2)ncc1C(F)(F)F)S(C)(=O)=O (stereo unspecified)
IC50 (Focal adhesion kinase 1): 26.4 nM
Emax [8]: 85%
half-life at 2 µM [9]: > 3.25 h

Cc1ncsc1-c1ccc(C(C)NC(=O)C2CC(O)CN2C(=O)C(NC(=O)CCCCCCCCCCNC(=O)CCc2cccc(-c3ccc4nc(-c5cccnc5N)n(-c5ccc(C6(N)CCC6)cc5)c4n3)c2)C(C)(C)C)cc1 (stereo unspecified)
IC50 [10]: 798 nM
IC50 [11]: 90 nM
IC50 [12]: 544 nM
DC50 [13]: 23 nM
GI50 (SW-620): 3100 nM

Cc1sc2c(c1C)C(c1ccc(Cl)cc1)=N[C@H](CC(=O)NCCCCCNC(=O)CN1CCOc3cc(N(CCC#N)C(=O)CCl)ccc31)c1nnc(C)n1-2
IC50 [14]: 1400 nM
Emax [15]: 94%
DC50 [16]: 250 nM

CC1CCC(C(C)C)C(OCC(=O)NCCS(=O)(=O)N2CCC(C(=O)Nc3ncc(SCc4ncc(C(C)(C)C)o4)s3)CC2)C1 (stereo unspecified)
IC50 (CWR22R): 95 nM
DC50 [17]: 62 nM
DC50 (Cyclin-T1): 589 nM
